Article PMC12948223, “HSP70 Interactome‐Mediated Proteolysis Targeting Chimera (HSP70‐PROTAC) for Ferroptosis‐Driven Cancer Treatment” (Advanced Science, 2025)

Assays:
[1] = test system: HT1080 cells; experiment: Cell viability CCK-8 assay; type: cell-based, human; details: Homo sapiens, HT-1080, CCK-8, 48 h, read-out: IC50 (cytotoxicity)
In short: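 HT1080 cells seeded 24 h, then exposed to serial compound dilutions (final DMSO <0.5% v/v) for 48 or 72 h at 37 °C. Viability by CCK-8 absorbance at 450 nm; IC50 from nonlinear regression, ≥3 independent repeats.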

[2] = test system: GPX4 mRNA; experiment: Real-time qRT-PCR of GPX4 mRNA in HT1080 cells; type: cell-based, human; details: HT1080 cells, 0.1, 0.3, 1 and 3 µM, 24 h
Description: Real‐time qRT‐PCR was used to determine the mRNA expression level of GPX4 gene in HT1080 cells. In brief, HT1080 cells were seeded in 6‐well plates at a density of 4.5 × 10^5 cells per well and allowed to adhere overnight. Subsequently, the cells were exposed to different concentrations of the test compound GDAz‐3 for 24 h. Total RNA from the various cell samples was extracted using an RNA‐Quick Purification Kit (#RC112, Vazyme, Nanjing, China) according to the manufacturer's instructions. The concentrations of the isolated RNA samples were determined using NanoDrop. A total of 2 µg RNA was used to synthesize cDNA using Fast‐All‐in‐One RT Kit (#RT001, ES Science, Shanghai) following the manufacturer's guidelines. Real‐time PCR was performed using 2xSuper SYBR Green QPCR Master Mix (#QP002, ES Science, Shanghai) and determined using a CFX96 PCR instrument with the following cycling conditions: 95 °C for 5 min, 95 °C for 10 s, and 60 °C for 30 s, 40 cycles. The data were analyzed by Bio‐Rad CFX Manager Software version 3.1. The primers used in this experiment were as follows: […]

[3] = biological target: T1, GPX4 (Homo sapiens, UniProt P36969); experiment: Quantitative proteomics of HT1080 cells; type: cell-based; set-up: determine the changes in the endogenous levels of GPX4 by western blot assay; endogenous in cells; host or cells: HT1080 fibrosarcoma cells, including siRNA-knockdown derivatives; details: 2 µM, 18 h
T1 sequence (P36969 1-170 isoform P36969-2): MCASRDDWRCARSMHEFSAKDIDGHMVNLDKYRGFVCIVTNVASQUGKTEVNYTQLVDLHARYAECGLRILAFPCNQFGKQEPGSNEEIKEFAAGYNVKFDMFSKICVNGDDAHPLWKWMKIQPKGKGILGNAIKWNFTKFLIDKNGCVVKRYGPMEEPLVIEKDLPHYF
Description: The proteomics data were generated by Shanghai Bioprofile Co., Ltd. After treatment with compound GDAz‐3 (2 µM) or DMSO for 18 h, the samples were collected. LC‐MS/MS analysis was conducted using an Orbitrap Astral zoom mass spectrometer paired with a Vanquish Neo UHPLC system (Thermo Fisher Scientific). Peptides from each sample were loaded into a column (50 cm Low‐Load µPAC Neo HPLC Column, Thermo Scientific) at a flow rate of 2.2 µL min^−1. The reversed‐phase high‐performance liquid chromatography (RP‐HPLC) mobile phases consisted of solvent A (0.1% formic acid in water) and solvent B (0.1% formic acid in 80% acetonitrile). Peptide elution was performed over 4.8 min with a linear gradient of buffer B at a flow rate 1.25 µL min^−1. The linear gradient was programmed as follows: 0–0.1 min, an increase from 4% to 6% solvent B; 0.1–1.1 min, from 6% to 12% buffer B; 1.1–4.3 min, from 12% to 25% buffer B; 4.3–6.1 min, from 25% to 45% buffer B; 6.1–6.5 min, from 45% to 99% buffer B; 6.5–8 min, buffer B maintained at 99%. The eluted peptides were subsequently analyzed on a Orbitrap Astral mass spectrometer. The DIA method consisted of a full scan m/z range of 380–980 at resolution 240 000 with AGC target of 500% and 5 ms injection time. […] Full MS scan spectra were recorded in profile mode, whereas DIA scan spectra were collected in centroid mode.

[4] = biological target: T2, Hsc70 in the presence of GPX4 protein (Homo sapiens, UniProt P11142+P36969); experiment: SPR ternary-complex binding (GDAz-3 preincubated with GPX4, Hsc70 immobilized)
T2 construct: purchased MedChemExpress (Hsc70); Cayman (GPX4) HY-P73915A; 26 906
T2 sequence (P11142 whole entry, one chain of several): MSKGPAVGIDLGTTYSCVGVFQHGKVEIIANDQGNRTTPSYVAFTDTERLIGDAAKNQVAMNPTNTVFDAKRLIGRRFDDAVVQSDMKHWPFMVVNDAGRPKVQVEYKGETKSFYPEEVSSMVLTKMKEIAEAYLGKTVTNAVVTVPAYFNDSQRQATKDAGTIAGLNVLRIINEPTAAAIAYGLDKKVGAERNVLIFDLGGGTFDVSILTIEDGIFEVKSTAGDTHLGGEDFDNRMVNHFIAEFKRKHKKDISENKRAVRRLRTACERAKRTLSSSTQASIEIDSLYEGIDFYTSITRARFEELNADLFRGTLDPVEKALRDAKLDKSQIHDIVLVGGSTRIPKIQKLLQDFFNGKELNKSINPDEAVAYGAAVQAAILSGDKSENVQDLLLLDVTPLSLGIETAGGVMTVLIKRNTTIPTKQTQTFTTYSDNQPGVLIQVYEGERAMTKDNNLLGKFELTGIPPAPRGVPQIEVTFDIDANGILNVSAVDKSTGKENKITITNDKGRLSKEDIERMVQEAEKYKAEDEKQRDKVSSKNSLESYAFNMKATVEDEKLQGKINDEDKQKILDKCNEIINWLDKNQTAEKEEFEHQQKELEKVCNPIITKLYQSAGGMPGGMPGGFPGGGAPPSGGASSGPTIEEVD
Description: The SPR data was generated by our Shared Instrumentation Core Facility at the Hangzhou Institute of Medicine (HIM), Chinese Academy of Sciences. The in vitro binding affinity of compound GDAz‐3 to recombinant proteins (Hsc70, MedChemExpress, #HY‐P73915A; GPX4, Cayman, Item No. 26 906) was evaluated using a Biacore 8K system (Cytiva (GE)) with the method of LMW multi‐cycle kinetics/affinity. Pipelines and chips were flushed with PBS (pH 7.4) running buffer, and then, human Hsc70 was immobilized on a CM5 sensor chip. Analysis was performed at a flow rate of 30 µL min^−1 at 25 °C with the injection of incremental concentrations of compounds dissolved in buffer solution (the final concentration of DMSO was 5%). For ternary‐complex binding measurements, Hsc70 was immobilized on a CM5 sensor chip, and compound GDAz‐3 at a concentration of 1 µM was preincubated with GPX4. The binding and dissociation durations were recorded as response unit values for 120 and 120 s in succession, respectively. Finally, the data were analyzed by Biacore evaluation software with the method of LMW multi‐cycle kinetics/affinity.

In the case of `COc1ccc(-c2nc(-c3cc(C(F)(F)F)cc(C(F)(F)F)c3)n(Cc3ccc(C(=O)NCCOCCOCCOCCn4cc(COc5ccc(N(C(=O)CCl)C(C(=O)NCCc6ccccc6)c6cccs6)cc5Cl)nn4)cc3)c2-c2ccc(OC)cc2)cc1` (centres unmarked) [GDAz-3, 4-((2-(3,5-bis(trifluoromethyl)phenyl)-4,5-bis(4-methoxyphenyl)-1H-imidazol-1-yl)methyl)-N-(2-(2-(2-(2-(4-((2-chloro-4-(2-chloro-N-(2-oxo-2-(phenethylamino)-1-(thiophen-2-yl)ethyl)acetamido)phenoxy)methyl)-1H-1,2,3-triazol-1-yl)ethoxy)ethoxy)ethoxy)ethyl)benzamide], the IC50 [1] is reported as 280 nM, the “Level of GPX4 mRNA” value [2] is reported as “did not significantly affect” and the “Proteomics profiling, GPX4 abundance” value [3] is reported as “clear degradation of GPX4”. The Kd ([4]; SPR, 1 µM GDAz-3 preincubated with GPX4, immobilized Hsc70) was 23.9 nM and the “Cooperativity (α)” value ([4]; ternary complex Hsc70/GDAz-3/GPX4) was 0.75.
